# Measurements: patent EP0264038A1, “Cytostatics containing glycidyl groups” (Henkel Kommanditgesellschaft auf Aktien, priority 1986, dated 1988)
# Test system: Tumorart P 388 (Leukämie)
# Experiment: Cytostatic activity: survival of mice with i.p. implanted P 388 leukemia (NCI protocol 1200)
# Type: in vivo, Mäusen
# Settings: 9-day treatment, P 388 set i.p. with 10⁶ Zellen/Maus, untreated mean survival 10 days
# Source text: Die nachfolgenden Versuche wurden durchgeführt nach Testvorschriften des National Cancer Institute Bethesda, Maryland 200014, veröffentlicht in "Cancer Chemotherapy Reports" Part. 3, Sept. 1972, Vol. 3, Nr. 2.
# Die Substanz wurde als wäßrige 1 %ige Injektionslösung unmittelbar vor der Applikation frisch hergestellt.
# Bei Mäusen wurden gemäß Protokoll 1200 (S. 91 c) die Tumorart P 388 (Leukämie) i.p. mit 10⁶ Zellen/Maus gesetzt. Die unbehandelten Tiere hatten eine mittlere Überlebensdauer von 10 Tagen.
# Mit den behandelten Testtieren, die einer 9-tägigen i.p. Behandlung mit der in Tabelle 1 angegebenen Dosis unterworfen wurden, wurde eine signifikante Verlängerung der Lebensdauer gegenüber der mittleren Überlebensdauer der nicht mit dem Wirkstoff behandelten Tiere erzielt. Die Verlängerungsrate T/C in Abhängigkeit von der Dosierung des Wirkstoffes ist nachtstehend tabellarisch zusammengestellt.
structure (smiles),measurement,setting,value
O=P(CC1CO1)(CC1CO1)CC1CO1 (stereo not drawn) [Triglycidylphosphinoxid],Verlängerungsrate T/C in %,Dosis 15 mg/kg,243%
same,Verlängerungsrate T/C in %,"Dosis 3,75 mg/kg",163%
same,Verlängerungsrate T/C in %,"Dosis 7,5 mg/kg",176%
